The text below walks through data of paper PMC9926234, “Iterative computational design and crystallographic screening identifies potent inhibitors targeting the Nsp3 macrodomain of SARS-CoV-2” (Proceedings of the National Academy of Sciences of the …, 2023).

SMILES strings stand for the structures. Where “and” joins values, the source holds several entries; their conditions need not be identical. Equal values may be shown once. Read-outs that look alike come from different tables or passages of the source.

Holding throughout (assay type): binding
In assay [1] the target is T1, SARS-CoV-2 NSP3 Mac1 (Severe acute respiratory syndrome coronavirus 2, UniProt P0DTD1). Nature of the assay: biochemical. As to conditions: for IC50: read-out: IC50; for Ki: read-out: Ki***.
Assay [2] has as its target T1, SARS-CoV-2 NSP3 Mac1. As to conditions: for Refined occupancy: ligand occupancy after refinement (phenix.refine).
For assay [3], the target named is T1, SARS-CoV-2 NSP3 Mac1. Also noted: contains a conserved macrodomain enzyme (Mac1). To be noted: for Spearman est (compound concentration vs apparent Tm): DSF dose responsiveness, 1 µM nsp3 mac1, adj p given; for DSF max dTma: maximal thermal upshift. An outline of the steps:
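ΔTma values are thermal shifts relative to a co-located DMSO-only control, read with 5 µM Fluorescent Yellow dye. Each compound was tested in triplicate over seven concentrations (two-fold steps, top 1,000 or 100 μM). Spearman correlation of concentration versus ΔTma tested whether the shift was dose-responsive.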

Setting [4] is: Ki estimation from HTRF-derived IC50, Cheng-Prusoff, peptide 400nM, Kd 2.68µM.
The mark [5] stands for this setting: PanDDA 1-BDC of the event, compound stock 100 mM, Echo dispense volume 80 nl.
Setting [6] is: PanDDA event map, 1 minus background density correction, crystal soaking of Mac1.
[7] abbreviates: crystal soak, compound stock 100 mM, Echo dispense volume 80 nl.
Setting [8] is: true hit = binding in crystallographic soaking or the HTRF-based binding assay.
[9] abbreviates: PanDDA event map 1-BDC, crystal soak, Compound_concentration 100 mM, PanDDA run dmso_34 or nohits_35 per dataset.
Where [10] appears, read: crystal soak, Compound_concentration 100 mM, Echo dispense 40 nl, PanDDA run dmso_34 or nohits_35 per dataset.
[11] abbreviates: ligand modeled from this dataset, compound concentration 100 mM.
Setting [12] is: HTRF ADPr-peptide displacement from SARS-CoV-2 Mac1.

Turning to `O=C(O)C1(F)CN(c2ncnc3[nH]c4cc(Br)ccc4c23)CC12CCC2` (stereo not drawn) [LL123_0006], the IC50 (in general, the concentration needed to halve the response being measured) on SARS-CoV-2 NSP3 Mac1 [1] (HTRF) was 92.9 µM. The Ki (as a rule, the equilibrium dissociation constant of an inhibitor or competing ligand from its target) on SARS-CoV-2 NSP3 Mac1 [1] (setting [4]) is 80.8 µM. Further, the 1-BDC came to 0.08 on SARS-CoV-2 NSP3 Mac1 [2] (PanDDA 1-BDC of the event, compound stock 100 mM, Echo dispense volume 40 nl) and 0.15 on SARS-CoV-2 NSP3 Mac1 [2] (setting [5]). The “1-BDC (PanDDA)” value at SARS-CoV-2 NSP3 Mac1 [2] (setting [6]) is 0.08. For the same molecule, the “PanDDA hit?” value was “TRUE” on SARS-CoV-2 NSP3 Mac1 [2] (crystal soak, compound stock 100 mM, Echo dispense volume 40 nl) and “TRUE” at SARS-CoV-2 NSP3 Mac1 [2] (setting [7]). In addition, on SARS-CoV-2 NSP3 Mac1 [2] (ligand modeled in structure, compound stock 100 mM, Echo dispense volume 40 nl), the “Modeled?” value is “TRUE”. At SARS-CoV-2 NSP3 Mac1 [2] (crystal soaking of Mac1), the Refined occupancy was determined as 16. Also, at SARS-CoV-2 NSP3 Mac1 [2] (setting [8]), the “HIT*” value is on record as “Y”.
As for `CNC(=O)Nc1ccc(C(=O)NC2c3cccc(O)c3CC2C(=O)O)cc1` (stereo not drawn) [Z8539_0077], at SARS-CoV-2 NSP3 Mac1 [1], the “binding to Mac1 in the HTRF assay, result in words” value is “did not substantially change binding affinity”. Besides, the IC50 on SARS-CoV-2 NSP3 Mac1 [1] (HTRF) came out at 1 µM. Further, the Ki at SARS-CoV-2 NSP3 Mac1 [1] (setting [4]) is 0.9 µM. Moreover, the 1-BDC came to 0.25 at SARS-CoV-2 NSP3 Mac1 [2] (setting [9]) and 0.2 on SARS-CoV-2 NSP3 Mac1 [2] (setting [6]). The “PanDDA hit?” value on SARS-CoV-2 NSP3 Mac1 [2] (setting [10]) was “TRUE”. In addition, the “Modeled?” value on SARS-CoV-2 NSP3 Mac1 [2] (setting [11]) is “TRUE”. The same molecule displayed a Refined occupancy on SARS-CoV-2 NSP3 Mac1 [2] (crystal soaking of Mac1) of 40. The “HIT*” value on SARS-CoV-2 NSP3 Mac1 [2] (setting [8]) is “Y”.
In the case of `O=C(O)CC1CN(c2ncnc3[nH]c4cc(Br)ccc4c23)CCO1` (stereo not drawn) [LL114_0014], the IC50 at SARS-CoV-2 NSP3 Mac1 [1] (HTRF) was found to be 25.9 µM. Besides, the Ki on SARS-CoV-2 NSP3 Mac1 [1] (setting [4]) is 22.5 µM. For the same molecule, on SARS-CoV-2 NSP3 Mac1 [2] (setting [8]), the “HIT*” value was “Y”.
In the case of `O=C(O)CC1CCN(c2ncnc3[nH]c4ccccc4c23)CCC1(F)F` (stereo not drawn) [Z6423], at SARS-CoV-2 NSP3 Mac1 [1] (HTRF), the IC50 came out at 143 µM. The Ki at SARS-CoV-2 NSP3 Mac1 [1] (setting [4]) is 124 µM. Further, the “HIT*” value on SARS-CoV-2 NSP3 Mac1 [2] (setting [8]) is “Y”.
Take `CS(=O)(=O)NC(=O)C1(F)CN(c2ncnc3[nH]c4cc(F)ccc4c23)CC12CCC2` (stereo not drawn) [LL123_0036]: the IC50 at SARS-CoV-2 NSP3 Mac1 [1] (setting [12]) is 17.1 µM and 17 µM. Also, the Ki at SARS-CoV-2 NSP3 Mac1 [1] (setting [4]) was 14.8 µM. For the same molecule, the values for the 1-BDC on SARS-CoV-2 NSP3 Mac1 [2] (setting [5]) and on SARS-CoV-2 NSP3 Mac1 [2] (setting [9]) were 0.18 and 0.2, respectively. The “1-BDC (PanDDA)” value on SARS-CoV-2 NSP3 Mac1 [2] (setting [6]) was 0.18. Also, the “PanDDA hit?” value at SARS-CoV-2 NSP3 Mac1 [2] (setting [10]) and on SARS-CoV-2 NSP3 Mac1 [2] (setting [7]) was “TRUE” throughout. At SARS-CoV-2 NSP3 Mac1 [2] (ligand modeled in structure, compound stock 100 mM, Echo dispense volume 80 nl), the “Modeled?” value is recorded as “TRUE”. At SARS-CoV-2 NSP3 Mac1 [2] (crystal soaking of Mac1), this molecule gave a Refined occupancy of 36. The “HIT*” value on SARS-CoV-2 NSP3 Mac1 [2] (setting [8]) was “Y”.
Take `Nc1ccc(C(=O)OC2c3ccccc3CC2C(=O)O)c(O)c1` (stereo not drawn) [Z8507]: on SARS-CoV-2 NSP3 Mac1 [1] (setting [12]), the IC50 worked out at 144 µM. In addition, the Ki at SARS-CoV-2 NSP3 Mac1 [1] came to 125 µM. This molecule returned a 1-BDC at SARS-CoV-2 NSP3 Mac1 [2] (PanDDA event map background density correction, crystal soak, compound concentration 100 mM) of 0.37. For the same molecule, the “1-BDC (PanDDA)” value at SARS-CoV-2 NSP3 Mac1 [2] (setting [6]) is 0.37. Also, the “Modeled?” value at SARS-CoV-2 NSP3 Mac1 [2] (ligand modeled in the crystal structure, crystal soak, compound concentration 100 mM) is listed as “TRUE”. Also, on SARS-CoV-2 NSP3 Mac1 [2] (crystal soaking of Mac1), the Refined occupancy is recorded as 74. For the same molecule, on SARS-CoV-2 NSP3 Mac1 [2] (overall hit call: binding in crystallographic soaking or the HTRF-based binding assay), the “HIT*” value is listed as “Y”.
In the case of `O=C(Nc1ccc(C(=O)NC2c3cccc(O)c3CC2C(=O)O)c(Cl)c1)NC1CC1` (stereo not drawn) [Z8539_0055], the IC50 worked out at 9.6 µM on SARS-CoV-2 NSP3 Mac1 [1] (setting [12]) and 10 µM on SARS-CoV-2 NSP3 Mac1 [1] (HTRF). For the same molecule, the Ki on SARS-CoV-2 NSP3 Mac1 [1] (setting [4]) is 8.7 µM. Further, the 1-BDC on SARS-CoV-2 NSP3 Mac1 [2] (setting [9]) came to 0.22; on SARS-CoV-2 NSP3 Mac1 [2] (setting [6]) it was 0.13. Further, the “PanDDA hit?” value at SARS-CoV-2 NSP3 Mac1 [2] (setting [10]) was “TRUE”. Besides, the “Modeled?” value at SARS-CoV-2 NSP3 Mac1 [2] (setting [11]) is on record as “TRUE”. At SARS-CoV-2 NSP3 Mac1 [2] (crystal soaking of Mac1), this molecule registered a Refined occupancy of 26. Moreover, the “HIT*” value on SARS-CoV-2 NSP3 Mac1 [2] (setting [8]) is given as “Y”.
On to `CN(C(=O)c1ccc(NC(=O)NC2CC2)cc1)C1c2cccc(O)c2CC1C(=O)O` (stereo not drawn) [Z8539_0056], for which the “binding to Mac1 in the HTRF assay, result in words” value on SARS-CoV-2 NSP3 Mac1 [1] was “inactive”.
With `CC1C(C(=O)O)CCCN1S(=O)(=O)c1c[nH]c2ncc(Cl)cc12` (stereo not drawn) [REAL300016493575], the “1-BDC (PanDDA)” value at SARS-CoV-2 NSP3 Mac1 [2] (setting [6]) worked out at 0.09. Moreover, the “Modeled?” value at SARS-CoV-2 NSP3 Mac1 [2] (setting [11]) is “TRUE”. In addition, the Refined occupancy at SARS-CoV-2 NSP3 Mac1 [2] (crystal soaking of Mac1) stood at 18. Moreover, at SARS-CoV-2 NSP3 Mac1 [2] (setting [8]), the “HIT*” value is recorded as “Y”. Besides, at SARS-CoV-2 NSP3 Mac1 [3], the “Spearman est (compound concentration vs apparent Tm)” value is listed as −0.16 and the “DSF max dTma” value is 0.15 ˚C.
On to `Cc1cc(S(=O)(=O)N2CCC[C@H](C(N)=O)C2)cnc1N` [ZINC001364774273], for which the 1-BDC on SARS-CoV-2 NSP3 Mac1 [2] (setting [6]) amounted to 0.1. The Refined occupancy on SARS-CoV-2 NSP3 Mac1 [2] (crystal soaking of Mac1) stood at 20. Besides, the “HIT*” value at SARS-CoV-2 NSP3 Mac1 [2] (setting [8]) is given as “Y”. Moreover, on SARS-CoV-2 NSP3 Mac1 [3], the “Spearman est (compound concentration vs apparent Tm)” value is on record as 0.3 and the “DSF max dTma” value is 0.21 ˚C.
